Assay results: patent publication US9206130B2, “Quinoline derivatives as AXL kinase inhibitors” (Max-Planck-Gesellschaft zur Förderung der Wissenschaften …, priority 2008, dated 2015)
Counter-ions that a name gives are not always drawn.

| melting point [°C] | Compound |
| --- | --- |
| 183 to 184 | COc1cc2c(Oc3ccc(NS(=O)(=O)c4ccccc4OC(F)(F)F)cc3F)ccnc2cc1OCCCN1CCOCC1 [Example D40, N-{3-Fluoro-4-[6-methoxy-7-(3-morpholin-4-yl-propoxy)-quinolin-4-yloxy]-phenyl}-2-trifluoromethoxy-benzenesulfonamide] |
| 98 to 101 | COc1cc(S(=O)(=O)Nc2ccc(Oc3ccnc4cc(OCCCN5CCCC(C)C5)c(OC)cc34)c(F)c2)ccc1F (stereo not drawn) [Example D38, 4-Fluoro-N-(3-fluoro-4-{6-methoxy-7-[3-(3-methyl-piperidin-1-yl)-propoxy]-quinolin-4-yloxy}-phenyl)-3-methoxy-benzenesulfonamide] |
| 180 to 181 | COc1cc2c(Oc3ccc(NS(=O)(=O)c4ccccc4C(F)(F)F)cc3F)ccnc2cc1OCCCN1CCOCC1 [Example D39, N-{3-Fluoro-4-[6-methoxy-7-(3-morpholin-4-yl-propoxy)-quinolin-4-yloxy]-phenyl}-2-trifluoromethyl-benzenesulfonamide] |
| 103 to 107 | COc1cc2c(Oc3ccc(NS(=O)(=O)c4cc(F)ccc4F)cc3F)ccnc2cc1OCCCN1CCCC(C)C1 (stereo not drawn) [Example D36, 2,5-Difluoro-N-(3-fluoro-4-{6-methoxy-7-[3-(3-methyl-piperidin-1-yl)-propoxy]-quinolin-4-yloxy}-phenyl)-benzenesulfonamide] |
| 198 to 202 | COc1cc2c(Oc3ccc(NS(=O)(=O)c4cccc(-c5ccccc5)c4)cc3F)ccnc2cc1OCCCN (as salt: hydrochloride) [Example D03, Biphenyl-3-sulfonic acid {4-[7-(3-amino-propoxy)-6-methoxy-quinolin-4-yloxy]-3-fluoro-phenyl}-amide hydrochloride] |
| 185 to 188 | COc1cc2c(Oc3ccc(NS(=O)(=O)c4ccccc4Br)cc3F)ccnc2cc1OCCCN1CCOCC1 [Example D49, 2-Bromo-N-{3-fluoro-4-[6-methoxy-7-(3-morpholin-4-yl-propoxy)-quinolin-4-yloxy]-phenyl}-benzenesulfonamide] |
| 95 to 97 | COc1cc2c(Oc3ccc(NS(=O)(=O)c4ccccc4OC(F)(F)F)cc3F)ccnc2cc1OCCCN (as salt: hydrochloride) [Example D15, N-{4-[7-(3-Amino-propoxy)-6-methoxy-quinolin-4-yloxy]-3-fluoro-phenyl}-2-trifluoromethoxy-benzenesulfonamide hydrochloride] |
| 200 to 203 | COc1cc2c(Oc3ccc(NS(=O)(=O)c4ccc(Cl)cc4F)cc3F)ccnc2cc1OCCCN1CCOCC1 [Example D43, 4-Chloro-2-fluoro-N-{3-fluoro-4-[6-methoxy-7-(3-morpholin-4-yl-propoxy)-quinolin-4-yloxy]-phenyl}-benzenesulfonamide] |
| 210 to 212 | COc1cc2c(Oc3ccc(NS(=O)(=O)c4cccc(-c5ccccc5)c4)cc3F)ccnc2cc1OCCCN1CCOCC1 [Example D42, Biphenyl-3-sulfonic acid {3-fluoro-4-[6-methoxy-7-(3-morpholin-4-yl-propoxy)-quinolin-4-yloxy]-phenyl}-amide] |
| 90 to 93 | COc1cc(S(=O)(=O)Nc2ccc(Oc3ccnc4cc(OCCCN5CCOCC5)c(OC)cc34)c(F)c2)ccc1F [Example D44, 4-Fluoro-N-{3-fluoro-4-[6-methoxy-7-(3-morpholin-4-yl-propoxy)-quinolin-4-yloxy]-phenyl}-3-methoxy-benzenesulfonamide] |
| 118 to 121 | COc1cc2c(Oc3ccc(NS(=O)(=O)c4ccccc4C(F)(F)F)cc3F)ccnc2cc1OCCCN1CCCC(C)C1 (stereo not drawn) [Example D35, N-(3-Fluoro-4-{6-methoxy-7-[3-(3-methyl-piperidin-1-yl)-propoxy]-quinolin-4-yloxy}phenyl)-2-trifluoromethyl-benzenesulfonamide] |
| 194 to 196 | COc1cc2c(Oc3ccc(NS(=O)(=O)c4c(Cl)cccc4Cl)cc3F)ccnc2cc1OCCCN1CCOCC1 [Example D47, 2,6-Dichloro-N-{3-fluoro-4-[6-methoxy-7-(3-morpholin-4-yl-propoxy)-quinolin-4-yloxy]-phenyl}-benzenesulfonamide] |
| 166 to 168 | COc1cc2c(Oc3ccc(NS(=O)(=O)c4ccccc4[N+](=O)[O-])cc3F)ccnc2cc1OCCCN1CCOCC1 [Example D46, N-{3-Fluoro-4-[6-methoxy-7-(3-morpholin-4-yl-propoxy)-quinolin-4-yloxy]-phenyl}-2-nitro-benzenesulfonamide] |
| 179 to 181 | COc1cc2c(Oc3ccc(NS(=O)(=O)c4ccccc4F)cc3F)ccnc2cc1OCCCN1CCOCC1 [Example D45, 2-Fluoro-N-{3-fluoro-4-[6-methoxy-7-(3-morpholin-4-yl-propoxy)-quinolin-4-yloxy]-phenyl}-benzenesulfonamide] |
| 108 to 111 | COc1cc2c(Oc3ccc(NS(=O)(=O)c4cccc5ccccc45)cc3F)ccnc2cc1OCCCN1CCOCC1 [Example D48, Naphthalene-1-sulfonic acid {3-fluoro-4-[6-methoxy-7-(3-morpholin-4-yl-propoxy)-quinolin-4-yloxy]-phenyl}-amide] |
| 192 to 195 | COc1cc2c(Oc3ccc(NS(=O)(=O)c4cc(F)ccc4F)cc3F)ccnc2cc1OCCCN1CCOCC1 [Example D41, 2,5-Difluoro-N-{3-fluoro-4-[6-methoxy-7-(3-morpholin-4-yl-propoxy)-quinolin-4-yloxy]-phenyl}-benzenesulfonamide] |

The next lines start with the compound.

| Compound | melting point [°C] |
| --- | --- |
| COc1cc2nccc(Oc3ccc(NS(=O)(=O)c4ccccc4C(F)(F)F)cc3)c2cc1OC | 224 to 227 |
| COc1cc2nccc(Oc3ccc(NS(=O)(=O)c4ccccc4C)c(F)c3)c2cc1OC | 218 to 220 |
| COc1cc2nccc(Oc3ccc(NS(=O)(=O)c4cc(F)ccc4F)c(F)c3)c2cc1OC | 232 to 234 |
| COc1cc2nccc(Oc3ccc(NS(=O)(=O)c4cc(Cl)ccc4Cl)c(F)c3)c2cc1OC | 228 to 230 |
| COc1cc2nccc(Oc3ccc(NS(=O)(=O)c4cccc(OC(F)(F)F)c4)c(F)c3)c2cc1OC [Example A35, N-[4-(6,7-Dimethoxy-quinolin-4-yloxy)-2-fluoro-phenyl]-3-trifluoromethoxy-benzenesulfonamide] | 221 to 223 |
| COc1cc2nccc(Oc3ccc(NS(=O)(=O)c4cccc(C(F)(F)F)c4)c(F)c3)c2cc1OC | 230 to 231 |
| COc1cc2nccc(Oc3ccc(NS(=O)(=O)c4ccc(Cl)c(Cl)c4)c(F)c3)c2cc1OC [Example A49, 3,4-Dichloro-N-[4-(6,7-dimethoxy-quinolin-4-yloxy)-2-fluoro-phenyl]-benzenesulfonamide] | 225 to 227 |
| COc1cc2nccc(Oc3ccc(NS(=O)(=O)c4c(Cl)cccc4Cl)c(F)c3)c2cc1OC | 217 to 218 |
| COc1cc2nccc(Oc3ccc(NS(=O)(=O)c4ccccc4)c(F)c3)c2cc1OC | 234 to 235 |
| COc1cc2nccc(Oc3ccc(NS(=O)(=O)c4ccc(OCc5c(C)noc5C)cc4)cc3)c2cc1OC [Example A87, N-[4-(6,7-Dimethoxy-quinolin-4-yloxy)-phenyl]-4-(3,5-dimethyl-isoxazol-4-ylmethoxy)-benzenesulfonamide] | 188 to 190 |
| COc1cc2nccc(Oc3ccc(NS(=O)(=O)c4ccccc4OC(F)(F)F)c(F)c3)c2cc1OC | 204 to 206 |
| COc1cc2c(Oc3ccc(NS(=O)(=O)c4ccccc4C(F)(F)F)cc3F)ccnc2cc1OCCN1CCOCC1 | 178 to 180 |
| COc1cc2nccc(Oc3ccc(NS(=O)(=O)c4cccc5cccnc45)c(F)c3)c2cc1OC [Example A8, Quinoline-8-sulfonic acid [4-(6,7-dimethoxy-quinolin-4-yloxy)-2-fluoro-phenyl]-amide] | 255 to 257 |
| COc1cc2nccc(Oc3ccc(NS(=O)(=O)c4ccccc4C(F)(F)F)cc3F)c2cc1OC | 80 to 83 |
| COc1cc2nccc(Oc3ccc(NS(=O)(=O)c4ccccc4C(F)(F)F)c(F)c3)c2cc1OC | 237 to 239 |
| COc1cc2c(Oc3ccc(NS(=O)(=O)c4cc(F)ccc4F)cc3F)ccnc2cc1OCCN1CCOCC1 | 169 to 173 |
| COc1cc2nccc(Oc3ccc(NS(=O)(=O)c4ccc5c(c4)CC(=O)N5C)cc3F)c2cc1OC [Example A125, 1-Methyl-2-oxo-2,3-dihydro-1H-indole-5-sulfonic acid [4-(6,7-dimethoxy-quinolin-4-yloxy)-3-fluoro-phenyl]-amide] | 163 to 165 |
| COc1cc2nccc(Oc3ccc(NS(=O)(=O)c4cccc(F)c4)c(F)c3)c2cc1OC | 233 to 235 |
| COc1cc2nccc(Oc3ccc(NS(=O)(=O)c4cc(Br)cc(C(F)(F)F)c4)c(F)c3)c2cc1OC [Example A47, 3-Bromo-N-[4-(6,7-dimethoxy-quinolin-4-yloxy)-2-fluoro-phenyl]-5-trifluoromethyl-benzenesulfonamide] | 214 to 216 |
| COc1cc2c(Oc3ccc(NS(=O)(=O)c4cc(F)ccc4F)cc3F)ccnc2cc1OCCCN1CCC(C)CC1 | 223 to 225 |
| COc1cc2c(Oc3ccc(NS(=O)(=O)c4ccccc4C(F)(F)F)cc3F)ccnc2cc1OCCCN (as salt: hydrochloride) | 197 to 199 |
| COc1cc2nccc(Oc3ccc(NS(=O)(=O)c4ccccc4C(F)(F)F)cc3OC)c2cc1OC | 198 to 199 |
| COc1cc2nccc(Oc3ccc(NS(=O)(=O)c4ccccc4C(F)(F)F)cc3C)c2cc1OC | 209 to 211 |
| COc1cc2nccc(Oc3ccc(NS(=O)(=O)c4cccc5ccccc45)cc3)c2cc1OC [Example A104, Naphthalene-1-sulfonic acid [4-(6,7-dimethoxy-quinolin-4-yloxy)-phenyl]-amide] | 250 to 253 |
| COc1cc2nccc(Oc3ccc(NS(=O)(=O)c4ccc(F)cc4F)c(F)c3)c2cc1OC | 212 to 214 |
| COc1cc2nccc(Oc3ccc(NS(=O)(=O)c4cc(Cl)c(O)c(Cl)c4)c(C)c3)c2cc1OC [Example A105, 3,5-Dichloro-N-[4-(6,7-dimethoxy-quinolin-4-yloxy)-2-methyl-phenyl]-4-hydroxy-benzenesulfonamide] | 255 to 259 |
